Assay results as given in US5446025A, “Formulations and method of the percutaneous administration of leuprolide” (Abbott Laboratories, priority 1992, dated 1995).

Type: physicochemical
Method: Partitioning studies of leuprolide free base and the acetate, palmitate, and decanesulfonate salts were conducted in Type I glass culture tubes fitted with poly(tetrafluroethylene)-lined caps. Octanol-saturated water was used to prepare solutions of leuprolide free base and the leuprolide salts at concentrations of 500 μg/ml. Ten ml of each solution and 10 ml of water-saturated octanol were placed in the glass tubes which were then tightly capped and shaken for 24 hours at 30° C. At the end of this time, the tubes were centrifuged at 2000 rpm for ten minutes. The water and octanol layers were separated and each analyzed for the concentrations of leuprolide or leuprolide salt. The octanol-water distribution coefficients, Kd, was calculated from the ratio of concentration in the non-aqueous phase and the aqueous phase.

Lipophilicity relative to the acetate salt, as measured by the octanol/water distribution coefficient: roughly six
SMILES: CCNC(=O)[C@@H]1CCCN1C(=O)[C@H](CCCNC(=N)N)NC(=O)[C@H](CC(C)C)NC(=O)[C@@H](CC(C)C)NC(=O)[C@H](Cc1ccc(O)cc1)NC(=O)[C@H](CO)NC(=O)[C@H](Cc1c[nH]c2ccccc12)NC(=O)[C@H](Cc1c[nH]cn1)NC(=O)[C@@H]1CCC(=O)N1 [Leuprolide free base, leuprolide]
